Key:
Assay in all cases: relative viability (nuclei count vs DMSO), 5 days (fraction); higher = more cells survive
NCI-H2126 = tested on: NCI-H2126
In short: (§1)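 Lung cancer cell lines in 1536-well plates were dosed by pin tool the day after seeding, either with one drug alone or with a fixed anchor-drug dose plus five library-drug doses (not always all listed) in √10 steps. After 5 days, cells were fixed and their nuclei stained in one step (final 0.05% Triton X-100, 1% formaldehyde, 1 ug/ml Hoechst), then counted on 4× images. Relative viability is the nuclei count in treated wells divided by that in vehicle wells. Values are medians of duplicate plates.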

NCI-H1975 = tested on: NCI-H1975
In short: as §1

NCI-H838 = tested on: NCI-H838
In short: as §1

LCLC-103H = tested on: LCLC-103H
In short: as §1

A-427 = tested on: A-427
In short: as §1

NCI-H460 = tested on: NCI-H460
In short: as §1

ABC-1 = tested on: ABC-1
In short: as §1

HARA = tested on: HARA
In short: as §1

NCI-H647 = tested on: NCI-H647
In short: as §1

RERF-LC-KJ = tested on: RERF-LC-KJ
In short: as §1

NCI-H1944 = tested on: NCI-H1944
In short: as §1

SW 900 = tested on: SW 900
In short: as §1

NCI-H1734 = tested on: NCI-H1734
In short: as §1

LOU-NH91 = tested on: LOU-NH91
In short: as §1

CAL-12T = tested on: CAL-12T
In short: as §1

NCI-H727 = tested on: NCI-H727
In short: as §1

NCI-H1651 = tested on: NCI-H1651
In short: as §1

NCI-H1666 = tested on: NCI-H1666
In short: as §1

NCI-H596 = tested on: NCI-H596
In short: as §1

BEN = tested on: BEN
In short: as §1

NCI-H2085 = tested on: NCI-H2085
In short: as §1

`Cc1cn(-c2cc(NC(=O)c3ccc(C)c(Nc4nccc(-c5cccnc5)n4)c3)cc(C(F)(F)F)c2)cn1` [Nilotinib] + NC(=O)Nc1cc(-c2cccc(F)c2)sc1C(=O)N[C@H]1CCCNC1 [AZD7762] (partner 0.2 µM) was tested, and the relative viability (NCI-H2126; first compound 0.001 µM) was 0.965, the relative viability (NCI-H2126; first compound 0.003162 µM) was 1.14 and the relative viability (NCI-H2126; first compound 0.01 µM) was 1.06. It also gave a relative viability (NCI-H2126; first compound 0.03162 µM) of 0.962, a relative viability (NCI-H2126; first compound 0.1 µM) of 0.606 and a relative viability (NCI-H1975; first compound 0.001 µM) of 0.622. The relative viability (NCI-H1975; first compound 0.003162 µM) was 0.571, the relative viability (NCI-H1975; first compound 0.01 µM) was 0.744 and the relative viability (NCI-H1975; first compound 0.03162 µM) was 0.613. It also gave a relative viability (NCI-H1975; first compound 0.1 µM) of 0.667, a relative viability (NCI-H838; first compound 0.001 µM) of 0.86 and a relative viability (NCI-H838; first compound 0.003162 µM) of 1.01. For the same compound, the relative viability (NCI-H838; first compound 0.03162 µM) was 0.9, the relative viability (NCI-H838; first compound 0.1 µM) was 0.995 and the relative viability (LCLC-103H; first compound 0.001 µM) was 0.861. For the same compound, the relative viability (LCLC-103H; first compound 0.003162 µM) was 0.883, the relative viability (LCLC-103H; first compound 0.01 µM) was 0.845 and the relative viability (LCLC-103H; first compound 0.03162 µM) was 0.705. The relative viability (LCLC-103H; first compound 0.1 µM) was 0.477, the relative viability (A-427; first compound 0.001 µM) was 0.716 and the relative viability (A-427; first compound 0.003162 µM) was 0.501. It also gave a relative viability (A-427; first compound 0.01 µM) of 0.681, a relative viability (A-427; first compound 0.03162 µM) of 0.535 and a relative viability (A-427; first compound 0.1 µM) of 0.338. The relative viability (NCI-H460; first compound 0.001 µM) was 0.549, the relative viability (NCI-H460; first compound 0.003162 µM) was 0.603 and the relative viability (NCI-H460; first compound 0.01 µM) was 0.389. The relative viability (NCI-H460; first compound 0.03162 µM) was 0.427, the relative viability (NCI-H460; first compound 0.1 µM) was 0.41 and the relative viability (ABC-1; first compound 0.001 µM) was 0.667. The relative viability (ABC-1; first compound 0.003162 µM) was 0.73, the relative viability (ABC-1; first compound 0.01 µM) was 0.803 and the relative viability (ABC-1; first compound 0.03162 µM) was 0.787. For the same compound, the relative viability (ABC-1; first compound 0.1 µM) was 0.387, the relative viability (HARA; first compound 0.001 µM) was 0.329 and the relative viability (HARA; first compound 0.003162 µM) was 0.208. It also gave a relative viability (HARA; first compound 0.01 µM) of 0.536, a relative viability (HARA; first compound 0.03162 µM) of 0.197 and a relative viability (HARA; first compound 0.1 µM) of 0.245. For the same compound, the relative viability (NCI-H647; first compound 0.001 µM) was 0.477, the relative viability (NCI-H647; first compound 0.003162 µM) was 0.41 and the relative viability (NCI-H647; first compound 0.01 µM) was 0.359. For the same compound, the relative viability (NCI-H647; first compound 0.03162 µM) was 0.285, the relative viability (NCI-H647; first compound 0.1 µM) was 0.341 and the relative viability (RERF-LC-KJ; first compound 0.001 µM) was 0.834. The relative viability (RERF-LC-KJ; first compound 0.003162 µM) was 1.02, the relative viability (RERF-LC-KJ; first compound 0.01 µM) was 1.16 and the relative viability (RERF-LC-KJ; first compound 0.03162 µM) was 0.598. It also gave a relative viability (RERF-LC-KJ; first compound 0.1 µM) of 0.427, a relative viability (NCI-H1944; first compound 0.001 µM) of 0.436 and a relative viability (NCI-H1944; first compound 0.003162 µM) of 0.75. It also gave a relative viability (NCI-H1944; first compound 0.01 µM) of 0.41, a relative viability (NCI-H1944; first compound 0.03162 µM) of 0.285 and a relative viability (NCI-H1944; first compound 0.1 µM) of 0.299. The relative viability (SW 900; first compound 0.003162 µM) was 0.479, the relative viability (SW 900; first compound 0.01 µM) was 0.575 and the relative viability (SW 900; first compound 0.03162 µM) was 0.369. It also gave a relative viability (SW 900; first compound 0.1 µM) of 0.304, a relative viability (NCI-H1734; first compound 0.001 µM) of 0.498 and a relative viability (NCI-H1734; first compound 0.003162 µM) of 0.617. For the same compound, the relative viability (NCI-H1734; first compound 0.01 µM) was 0.558, the relative viability (NCI-H1734; first compound 0.03162 µM) was 0.387 and the relative viability (NCI-H1734; first compound 0.1 µM) was 0.219. It also gave a relative viability (LOU-NH91; first compound 0.001 µM) of 0.748, a relative viability (LOU-NH91; first compound 0.003162 µM) of 0.742 and a relative viability (LOU-NH91; first compound 0.01 µM) of 0.772. For the same compound, the relative viability (LOU-NH91; first compound 0.03162 µM) was 0.65, the relative viability (LOU-NH91; first compound 0.1 µM) was 0.684 and the relative viability (CAL-12T; first compound 0.001 µM) was 0.607. For the same compound, the relative viability (CAL-12T; first compound 0.003162 µM) was 0.423, the relative viability (CAL-12T; first compound 0.01 µM) was 0.631 and the relative viability (CAL-12T; first compound 0.03162 µM) was 0.539. It also gave a relative viability (CAL-12T; first compound 0.1 µM) of 0.605, a relative viability (NCI-H727; first compound 0.001 µM) of 0.574 and a relative viability (NCI-H727; first compound 0.003162 µM) of 0.528. For the same compound, the relative viability (NCI-H727; first compound 0.01 µM) was 0.456, the relative viability (NCI-H727; first compound 0.03162 µM) was 0.573 and the relative viability (NCI-H727; first compound 0.1 µM) was 0.58. For the same compound, the relative viability (NCI-H1651; first compound 0.001 µM) was 0.444, the relative viability (NCI-H1651; first compound 0.003162 µM) was 0.394 and the relative viability (NCI-H1651; first compound 0.01 µM) was 0.572. For the same compound, the relative viability (NCI-H1651; first compound 0.03162 µM) was 0.401, the relative viability (NCI-H1651; first compound 0.1 µM) was 0.239 and the relative viability (NCI-H1666; first compound 0.001 µM) was 0.78. For the same compound, the relative viability (NCI-H1666; first compound 0.01 µM) was 0.855, the relative viability (NCI-H1666; first compound 0.03162 µM) was 0.74 and the relative viability (NCI-H1666; first compound 0.1 µM) was 0.724. The relative viability (NCI-H596; first compound 0.001 µM) was 1.11, the relative viability (NCI-H596; first compound 0.003162 µM) was 1.02 and the relative viability (NCI-H596; first compound 0.01 µM) was 1.11. The relative viability (NCI-H596; first compound 0.03162 µM) was 1.13, the relative viability (NCI-H596; first compound 0.1 µM) was 1.01 and the relative viability (BEN; first compound 0.001 µM) was 0.76. It also gave a relative viability (BEN; first compound 0.003162 µM) of 0.649, a relative viability (BEN; first compound 0.01 µM) of 0.589 and a relative viability (BEN; first compound 0.03162 µM) of 0.6. The relative viability (BEN; first compound 0.1 µM) was 0.53, the relative viability (NCI-H2085; first compound 0.001 µM) was 0.978 and the relative viability (NCI-H2085; first compound 0.003162 µM) was 0.942. The relative viability (NCI-H2085; first compound 0.01 µM) was 1.03, the relative viability (NCI-H2085; first compound 0.03162 µM) was 0.793 and the relative viability (NCI-H2085; first compound 0.1 µM) was 0.527.

Source: the supplement of paper PMC10307832
